13 molecules from patent US7635711B2, “Glucocorticoid mimetics, methods of making them, pharmaceutical compositions, and uses thereof” (Boehringer-Ingelheim Pharmaceuticals, Inc., priority 2004, dated 2009) can be followed below.

The structures appear in SMILES notation.

System in one series: not given
Experiment: not given
Details: not given
By melting point is commonly meant the temperature of the solid-liquid transition. Take `O=S(=O)(NC(Cc1c[nH]c2ccccc12)C(F)(F)F)c1ccccc1` (stereo not shown): the melting point was 121 to 123 °C.

In another series the test system is glucocorticoid receptor. The experiment in a line: one or more of the above assays (GR binding and GR cell assays for agonist/antagonist activity). Type of series: cell-based. The conditions noted are these: in one or more of the above assays. The source says:
Compounds found to bind to the glucocorticoid receptor may be evaluated for dissociation of transactivation and transrepression by assays cited in the Background of the Invention (C. M. Bamberger and H. M. Schulte, Eur. J. Clin. Invest., 2000, 30 (suppl. 3) 6-9) or by the assays described below.
B. Glucocorticoid Receptor Cell Assays
1. Induction of Aromatase in Fibroblasts (Cell Assay for Transactivation)
Dexamethasone, a synthetic ligand to the glucocorticoid receptor (GR), induces expression of aromatase in human foreskin fibroblast cells. The activity of aromatase is measured by the conversion of testosterone to estradiol in culture media.
Human foreskin fibroblast cells (ATCC Cat. No. CRL-2429, designation CCD112SK) are plated on 96 well plates at 50,000 cells per well 5 days before use, in Iscove's Modified Dulbecco's Media (GibcoBRL Life Technologies Cat No. 12440-053) supplemented with 10% charcoal filtered FBS (Clonetech Cat No. SH30068) and Gentamycin (GibcoBRL Life Technologies Cat. No. 15710-064). On the day of the experiment, the media in the wells is replaced with fresh media. Cells are treated with test compounds to final concentrations of 10^−5 M to 10^−8 M, and testosterone to a final concentration of 300 ng/mL. Each well has a total volume of 100 μL. Samples are made in duplicates. Control wells include: (a) wells that receive testosterone only, and (b) wells that receive testosterone plus 2 μM of dexamethasone to provide maximum induction of aromatase. Plates are incubated at 37° C. overnight (15 to 18 hours), and supernatants are harvested at the end of incubation. Estradiol in the supernatant is measured using ELISA kits for estradiol (made by ALPCO, obtained from American Laboratory Products Cat. No. 020-DR-2693) according to the manufacture's instruction. The amount of estradiol is inversely proportional to the ELISA signals in each well. The extent of aromatase induction by test compounds is expressed as a relative percentage to dexamethasone. EC50 values of test compounds are derived by non-linear curve fitting.
2. Inhibition of IL-6 Production in Fibroblasts (Cell Assay for Transrepression)
Human foreskin fibroblast cells produce IL-6 in response to stimulation by pro-inflammatory cytokine IL-1.
Human foreskin fibroblast cells (ATCC Cat. No. CRL-2429) are plated on 96 well plates at 5,000 cells per well the day before use, in Iscove's Modified Dulbecco's Media (GibcoBRL Life Technologies Cat. No. 12440-053) supplemented with 10% charcoal filtered FBS (Clonetech Cat. No. SH30068) and Gentamycin (GibcoBRL Life Technologies Cat. No. 15710-064). On the next day, media in the wells is replaced with fresh media. Cells are treated with IL-1 (rhIL-1α, R&D Systems Cat. No. 200-LA) to a final concentration of 1 ng/mL, and with test compounds to final concentrations of 10^−5 M to 10^−8 M, in a total volume of 200 μL per well. Samples are done in duplicates. […] Positive control wells receive IL-1 only and represent maximum (or 100%) amount of IL-6 production. Plates are incubated at 37° C. overnight (15 to 18 hours), and supernatants are harvested at the end of incubation. IL-6 levels in the supernatants are determined by the ELISA kits for IL-6 (MedSystems Diagnostics GmbH, Vienna, Austria, Cat. No. BMS213TEN) according to manufacture's instructions. The extent of inhibition of IL-6 by test compounds is expressed in percentage relative to positive controls. IC50 values of test compounds are derived by non-linear curve fitting.
Evaluation of agonist or antagonist activity of compounds binding to the glucocorticoid receptor may be determined by any of the assays.
3. Modulation of Tyrosine Aminotransferase (TAT) Induction in Rat Hepatoma Cells
Testing of compounds for agonist or antagonist activity in induction of tyrosine aminotransferase (TAT) in rat hepatoma cells. […]
Take `Cc1cc(C)c(S(=O)(=O)NC(Cc2c[nH]c3ccccc23)C(F)(F)F)c(C)c1` (stereo not shown) [2,4,6-Trimethyl-N-[2,2,2-trifluoro-1-(1H-indol-3-ylmethyl)ethyl]benzenesulfonamide]: the “activity as an agonist of the glucocorticoid receptor function” value (from here on “activity”) is “activity as an agonist”. Same read-out and setting: the value for `Cc1cc(C)c(S(=O)(=O)NC(Cn2cc(C)c3ccccc32)C(F)(F)F)c(C)c1` (stereo not shown) [2,4,6-Trimethyl-N-[2,2,2-trifluoro-1-(3-methylindol-1-ylmethyl)ethyl]benzenesulfonamide] was “activity as an agonist”; that for `Cc1cc(C)c(S(=O)(=O)NC(Cc2c[nH]c3cccc(F)c23)C(F)(F)F)c(C)c1` (stereo not shown) [2,4,6-Trimethyl-N-[2,2,2-trifluoro-1-(4-fluoro-1H-indol-3-ylmethyl)ethyl]benzenesulfonamide] was “activity as an agonist”; that for `Cc1cc(C)c(S(=O)(=O)NC(Cc2c[nH]c3ccc(F)cc23)C(F)(F)F)c(C)c1` (stereo not shown) [2,4,6-Trimethyl-N-[2,2,2-trifluoro-1-(5-fluoro-1H-indol-3-ylmethyl)ethyl]benzenesulfonamide] was “activity as an agonist”.

For `Cc1cc(C)c(S(=O)(=O)NC(Cc2c[nH]c3ccc(C)cc23)C(F)(F)F)c(C)c1` (stereo not shown) [2,4,6-Trimethyl-N-[2,2,2-trifluoro-1-(5-methyl-1H-indol-3-ylmethyl)ethyl]benzenesulfonamide], the “activity” value is “activity as an agonist”. On the same count and under the same terms, as for `Cc1cc(C)c(S(=O)(=O)NC(Cc2c[nH]c3cc(F)ccc23)C(F)(F)F)c(C)c1` (stereo not shown) [2,4,6-Trimethyl-N-[2,2,2-trifluoro-1-(6-fluoro-1H-indol-3-ylmethyl)ethyl]benzenesulfonamide], the entry is “activity as an agonist”. The same measure, in the same setting: as for `Cc1cc(C)c(S(=O)(=O)NC(Cc2c[nH]c3c(F)cccc23)C(F)(F)F)c(C)c1` (stereo not shown) [2,4,6-Trimethyl-N-[2,2,2-trifluoro-1-(7-fluoro-1H-indol-3-ylmethyl)ethyl]benzenesulfonamide], the entry is “activity as an agonist”; as for `Nc1cc(Cl)cc(Cl)c1S(=O)(=O)NC(Cc1c[nH]c2ccccc12)C(F)(F)F` (stereo not shown) [2-Amino-4,6-dichloro-N-[2,2,2-trifluoro-1-(1H-indol-3-ylmethyl)ethyl]benzenesulfonamide], “activity as an agonist”. As to `Cc1ccc2[nH]cc(CC(NS(=O)(=O)c3c(N)cc(Cl)cc3Cl)C(F)(F)F)c2c1` (stereo not shown) [2-Amino-4,6-dichloro-N-[2,2,2-trifluoro-1-(5-methyl-1H-indol-3-ylmethyl)ethyl]benzenesulfonamide], the “activity” value is given as “activity as an agonist”. Still for that read-out and setting: the value for `Cc1cc(C)c(S(=O)(=O)NC(Cc2c[nH]c3ccccc23)C(F)(F)F)c(N)c1` (stereo not shown) [2-Amino-4,6-dimethyl-N-[2,2,2-trifluoro-1-(1H-indol-3-ylmethyl)ethyl]benzenesulfonamide] was “activity as an agonist”; that for `Cc1cc(C)c(S(=O)(=O)NC(Cc2c[nH]c3c(C#N)cccc23)C(F)(F)F)c(C)c1` (stereo not shown) [N-[1-(7-Cyano-1H-indol-3-ylmethyl)-2,2,2-trifluoroethyl]-2,4,6-trimethylbenzenesulfonamide] was “activity as an agonist”; that for `Cc1cc(C)c(S(=O)(=O)NC(Cc2c[nH]c3c(C#N)cc(C)cc23)C(F)(F)F)c(C)c1` (stereo not shown) [N-[1-(7-Cyano-5-methyl-1H-indol-3-ylmethyl)-2,2,2-trifluoroethyl]-2,4,6-trimethylbenzenesulfonamide] was “activity as an agonist”.
